Columns and labels:
[1] = biological target: T1, ryanodine receptor 1 (RyR1) (Oryctolagus cuniculus, UniProt P11716); assay: protection from AziPm photolabelling ([…] propofol) in purified RyR1; the IC50 is from [3H]ryanodine binding in wild-type heavy SR vesicles at pCa […] (species not given, assumed)
T1 construct: full-length RyR1 purified from wild-type rabbit skeletal muscle; with FKBP12.6

[2] = biological target: T2, ryanodine receptor 1 (RyR1) (Homo sapiens, UniProt P21817); assay: Fura-2 Ca2+ imaging, inhibition of Ca2+ release induced by […] ryanodine; assay type: cell-based
T2 construct: wild-type human skeletal myotubes

[3] = biological target: T1, ryanodine receptor 1 (RyR1); assay: photoaffinity labelling of purified RyR1-FKBP12.[…] with MS; the IC50 is from [3H]ryanodine binding in wild-type heavy SR vesicles at pCa […] (species not given, assumed)

T1 sequence (P11716 whole entry): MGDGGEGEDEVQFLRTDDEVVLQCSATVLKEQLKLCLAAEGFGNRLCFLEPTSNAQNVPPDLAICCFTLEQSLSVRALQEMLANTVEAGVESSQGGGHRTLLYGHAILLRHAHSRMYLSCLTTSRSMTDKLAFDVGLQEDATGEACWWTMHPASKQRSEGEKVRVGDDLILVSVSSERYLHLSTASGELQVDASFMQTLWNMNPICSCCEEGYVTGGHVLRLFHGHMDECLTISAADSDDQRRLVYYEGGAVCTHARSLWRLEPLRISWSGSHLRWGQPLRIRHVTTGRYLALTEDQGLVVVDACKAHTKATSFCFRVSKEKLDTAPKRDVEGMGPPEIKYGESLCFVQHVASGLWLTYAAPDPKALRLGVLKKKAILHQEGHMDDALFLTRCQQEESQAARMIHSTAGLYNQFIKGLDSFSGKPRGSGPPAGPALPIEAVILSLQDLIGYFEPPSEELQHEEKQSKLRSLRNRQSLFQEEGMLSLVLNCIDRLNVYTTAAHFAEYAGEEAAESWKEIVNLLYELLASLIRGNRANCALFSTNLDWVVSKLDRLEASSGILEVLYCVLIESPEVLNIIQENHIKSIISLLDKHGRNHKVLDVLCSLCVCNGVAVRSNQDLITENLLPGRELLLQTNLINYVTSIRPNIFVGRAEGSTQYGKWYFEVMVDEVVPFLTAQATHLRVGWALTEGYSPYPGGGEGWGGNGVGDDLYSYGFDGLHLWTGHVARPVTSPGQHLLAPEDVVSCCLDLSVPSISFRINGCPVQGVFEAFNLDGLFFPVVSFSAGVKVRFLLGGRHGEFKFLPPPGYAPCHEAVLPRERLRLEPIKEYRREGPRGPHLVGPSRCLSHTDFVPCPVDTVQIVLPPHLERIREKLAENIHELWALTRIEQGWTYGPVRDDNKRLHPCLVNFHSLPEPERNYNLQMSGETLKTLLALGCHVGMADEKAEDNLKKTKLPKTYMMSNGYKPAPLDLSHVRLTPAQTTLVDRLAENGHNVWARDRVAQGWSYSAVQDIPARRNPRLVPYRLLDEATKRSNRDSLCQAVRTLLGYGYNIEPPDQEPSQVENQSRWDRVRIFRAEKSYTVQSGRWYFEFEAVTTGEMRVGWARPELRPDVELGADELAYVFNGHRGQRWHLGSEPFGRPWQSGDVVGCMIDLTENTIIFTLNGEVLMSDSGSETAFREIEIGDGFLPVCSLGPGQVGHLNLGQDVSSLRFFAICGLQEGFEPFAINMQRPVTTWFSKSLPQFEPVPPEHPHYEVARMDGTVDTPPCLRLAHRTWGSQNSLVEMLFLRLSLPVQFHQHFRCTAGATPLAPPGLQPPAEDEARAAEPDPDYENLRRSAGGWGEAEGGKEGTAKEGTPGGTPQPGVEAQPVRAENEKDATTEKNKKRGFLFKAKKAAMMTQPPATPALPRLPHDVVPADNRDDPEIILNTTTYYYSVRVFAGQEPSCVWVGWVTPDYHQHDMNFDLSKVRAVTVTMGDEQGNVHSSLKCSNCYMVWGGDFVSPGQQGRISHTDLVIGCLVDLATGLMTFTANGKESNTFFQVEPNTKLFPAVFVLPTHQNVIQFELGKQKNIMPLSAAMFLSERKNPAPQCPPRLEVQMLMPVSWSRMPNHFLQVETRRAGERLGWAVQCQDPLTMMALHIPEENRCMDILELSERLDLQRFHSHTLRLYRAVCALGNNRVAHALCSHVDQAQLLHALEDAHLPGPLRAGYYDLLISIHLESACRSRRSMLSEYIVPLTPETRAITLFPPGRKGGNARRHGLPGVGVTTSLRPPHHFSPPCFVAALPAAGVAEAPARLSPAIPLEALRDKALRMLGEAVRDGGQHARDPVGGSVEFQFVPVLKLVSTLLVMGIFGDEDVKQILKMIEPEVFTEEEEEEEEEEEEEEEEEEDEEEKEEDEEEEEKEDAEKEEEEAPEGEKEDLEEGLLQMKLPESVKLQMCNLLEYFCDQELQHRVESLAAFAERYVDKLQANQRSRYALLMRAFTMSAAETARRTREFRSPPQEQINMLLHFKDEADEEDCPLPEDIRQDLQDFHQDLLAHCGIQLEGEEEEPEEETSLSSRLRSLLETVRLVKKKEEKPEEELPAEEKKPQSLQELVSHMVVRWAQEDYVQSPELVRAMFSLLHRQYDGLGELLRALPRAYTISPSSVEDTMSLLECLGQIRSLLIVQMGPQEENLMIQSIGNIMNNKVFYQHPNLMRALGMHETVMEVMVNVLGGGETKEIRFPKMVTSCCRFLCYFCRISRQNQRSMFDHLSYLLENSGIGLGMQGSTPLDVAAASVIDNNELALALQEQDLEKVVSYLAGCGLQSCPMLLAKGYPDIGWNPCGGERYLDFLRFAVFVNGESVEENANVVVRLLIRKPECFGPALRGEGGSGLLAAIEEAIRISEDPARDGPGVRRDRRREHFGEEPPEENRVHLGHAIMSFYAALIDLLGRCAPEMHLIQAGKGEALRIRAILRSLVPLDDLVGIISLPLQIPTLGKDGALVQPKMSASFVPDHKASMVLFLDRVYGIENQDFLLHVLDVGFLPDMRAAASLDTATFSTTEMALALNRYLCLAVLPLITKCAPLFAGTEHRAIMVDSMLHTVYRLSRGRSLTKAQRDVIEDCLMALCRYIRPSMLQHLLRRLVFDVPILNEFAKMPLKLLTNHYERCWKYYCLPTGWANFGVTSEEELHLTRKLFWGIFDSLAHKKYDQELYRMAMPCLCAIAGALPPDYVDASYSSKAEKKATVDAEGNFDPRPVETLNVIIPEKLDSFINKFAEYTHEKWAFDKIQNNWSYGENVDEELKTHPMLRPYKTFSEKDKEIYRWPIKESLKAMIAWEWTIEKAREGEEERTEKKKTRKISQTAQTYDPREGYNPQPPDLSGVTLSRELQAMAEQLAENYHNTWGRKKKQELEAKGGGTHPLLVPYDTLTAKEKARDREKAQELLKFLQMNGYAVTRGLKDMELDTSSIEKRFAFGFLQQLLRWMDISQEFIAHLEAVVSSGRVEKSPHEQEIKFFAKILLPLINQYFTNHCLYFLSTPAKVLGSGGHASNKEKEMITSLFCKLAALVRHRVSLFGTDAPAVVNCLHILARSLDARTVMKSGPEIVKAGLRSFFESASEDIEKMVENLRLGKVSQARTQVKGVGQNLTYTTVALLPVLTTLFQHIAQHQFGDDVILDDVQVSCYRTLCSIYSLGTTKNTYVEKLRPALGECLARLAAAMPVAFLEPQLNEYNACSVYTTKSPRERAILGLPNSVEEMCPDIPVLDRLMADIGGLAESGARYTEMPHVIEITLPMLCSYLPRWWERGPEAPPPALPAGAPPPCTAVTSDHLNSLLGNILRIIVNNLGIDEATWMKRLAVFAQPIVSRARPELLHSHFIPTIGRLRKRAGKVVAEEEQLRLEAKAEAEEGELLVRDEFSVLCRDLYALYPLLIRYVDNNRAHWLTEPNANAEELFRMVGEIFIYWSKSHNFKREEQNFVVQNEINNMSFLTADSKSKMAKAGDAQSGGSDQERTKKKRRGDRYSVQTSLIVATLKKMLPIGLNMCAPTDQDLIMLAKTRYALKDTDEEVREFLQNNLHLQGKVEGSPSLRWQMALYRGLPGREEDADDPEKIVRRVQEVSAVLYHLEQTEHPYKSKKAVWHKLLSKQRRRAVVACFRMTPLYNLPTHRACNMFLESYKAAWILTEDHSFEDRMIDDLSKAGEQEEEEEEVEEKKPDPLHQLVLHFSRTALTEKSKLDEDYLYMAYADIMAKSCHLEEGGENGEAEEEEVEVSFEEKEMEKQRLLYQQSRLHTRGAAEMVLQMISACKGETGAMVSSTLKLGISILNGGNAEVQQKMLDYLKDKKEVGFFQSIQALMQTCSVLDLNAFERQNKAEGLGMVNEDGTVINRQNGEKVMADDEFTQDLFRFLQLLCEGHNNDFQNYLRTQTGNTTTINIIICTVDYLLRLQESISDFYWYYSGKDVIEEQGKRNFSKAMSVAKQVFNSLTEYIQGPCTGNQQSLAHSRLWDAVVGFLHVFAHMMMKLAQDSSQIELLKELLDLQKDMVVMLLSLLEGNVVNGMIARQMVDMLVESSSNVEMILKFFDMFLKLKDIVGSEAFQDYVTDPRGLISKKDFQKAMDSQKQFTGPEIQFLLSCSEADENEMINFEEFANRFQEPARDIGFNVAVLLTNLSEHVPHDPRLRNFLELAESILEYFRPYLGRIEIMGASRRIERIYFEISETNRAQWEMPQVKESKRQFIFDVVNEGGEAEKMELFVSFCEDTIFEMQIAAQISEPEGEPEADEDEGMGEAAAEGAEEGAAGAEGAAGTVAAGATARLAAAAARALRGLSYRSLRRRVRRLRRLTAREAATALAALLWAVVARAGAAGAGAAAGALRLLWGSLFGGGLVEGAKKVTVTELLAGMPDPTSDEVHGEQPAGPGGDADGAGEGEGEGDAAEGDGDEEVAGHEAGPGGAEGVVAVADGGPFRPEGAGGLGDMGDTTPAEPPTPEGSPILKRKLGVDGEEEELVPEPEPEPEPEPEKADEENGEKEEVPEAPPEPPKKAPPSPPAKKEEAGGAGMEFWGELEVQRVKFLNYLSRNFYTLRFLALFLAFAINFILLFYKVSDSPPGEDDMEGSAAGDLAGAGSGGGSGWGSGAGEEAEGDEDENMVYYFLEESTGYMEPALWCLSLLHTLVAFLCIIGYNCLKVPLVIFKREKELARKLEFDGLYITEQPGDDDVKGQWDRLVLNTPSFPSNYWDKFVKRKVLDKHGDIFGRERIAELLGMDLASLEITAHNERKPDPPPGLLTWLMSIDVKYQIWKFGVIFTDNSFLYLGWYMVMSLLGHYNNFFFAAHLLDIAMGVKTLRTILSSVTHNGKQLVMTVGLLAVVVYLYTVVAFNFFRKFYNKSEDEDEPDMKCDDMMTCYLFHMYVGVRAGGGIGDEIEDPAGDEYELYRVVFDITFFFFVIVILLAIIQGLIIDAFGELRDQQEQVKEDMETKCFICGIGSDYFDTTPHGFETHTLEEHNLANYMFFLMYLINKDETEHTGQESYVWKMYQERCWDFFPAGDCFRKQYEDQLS

For `CC(C)c1cccc(C(C)C)c1O` [Propofol], which IC50 [1] is on record?
The IC50 was 5.8 µM.

And the IC50 [2]?
The IC50 was 29.5 µM.

`CC(C)c1ccc(C2(C(F)(F)F)N=N2)cc1O` [m-azipropofol] was tested. Which IC50 [3] did it give?
Its IC50 is 6.9 µM.

Reference: paper PMC11488158 (BJA: British Journal of Anaesthesia, 2024)
